Data published in ChEMBL document CHEMBL3745675, “Design and optimization of selective azaindole amide M1 positive allosteric modulators” (Bioorg Med Chem Lett, 2016).

What was measured:
[1] = Tmax in Wistar Hann rat CSF at 5 mg/kg, sc; type: ADME, organism-based, Cerebrospinal fluid
[2] = Tmax in Wistar Hann rat brain at 5 mg/kg, sc; type: ADME, organism-based
[3] = Tmax in Wistar Hann rat plasma at 5 mg/kg, sc; type: ADME, organism-based
Plasma [4] = test: Fraction unbound in Wistar Hann rat plasma at 5 mg/kg, sc after 4 hrs; type: ADME, organism-based; details: in vivo
Plasma [5] = test: Fraction unbound in Wistar Hann rat plasma; type: ADME, cell-free
[6] = Ratio of drug level in CSF to plasma in Wistar Hann rat at 5 mg/kg, sc after 4 hrs; type: ADME, organism-based; details: CSF and plasma
[7] = Drug concentration in Wistar Hann rat plasma at 5 mg/kg, sc after 4 hrs; type: ADME, organism-based
[8] = Ratio of drug level in brain to plasma in Wistar Hann rat at 5 mg/kg, sc after 2 hrs; type: ADME, organism-based
[9] = Cmax in Wistar Hann rat CSF at 5 mg/kg, sc; type: ADME, organism-based, Cerebrospinal fluid; parameters: dose 5 mg/kg, route subcutaneous
Plasma [10] = test: Fraction unbound in C57BL/6j mouse plasma at […], sc after 1 hr; type: ADME, organism-based; details: in vivo
[11] = Oral bioavailability in Wistar Hann rat at 2 mg/kg; type: ADME, organism-based; details: in vivo
[12] = Oral bioavailability in Wistar Hann rat; type: ADME, organism-based; details: in vivo
[13] = Drug concentration in Wistar Hann rat brain at 5 mg/kg, sc after 2 hrs; type: ADME, organism-based; details: read-out: Drug uptake
[14] = AUC (0 to infinity) in Wistar Hann rat brain at 5 mg/kg, sc; type: ADME, organism-based; parameters: dose 5 mg/kg, route subcutaneous, time infinity
[15] = Cmax in Wistar Hann rat at 2 mg/kg, po; type: ADME, organism-based; parameters: dose 2 mg/kg, route oral; details: in vivo
[16] = Ratio of unbound AUC in brain to plasma in C57BL/6j mouse; type: ADME, organism-based; details: read-out: Ratio AUC
[17] = AUC (0 to infinity) in Wistar Hann rat CSF at 5 mg/kg, sc; type: ADME, organism-based, Cerebrospinal fluid; parameters: dose 5 mg/kg, time infinity, route subcutaneous
[18] = Drug concentration in Wistar Hann rat plasma at 5 mg/kg, sc after 2 hrs; type: ADME, organism-based
Plasma [19] = test: Fraction unbound in C57BL/6j mouse plasma at 10 mg/kg, sc after 4 hrs; type: ADME, organism-based; details: in vivo
[20] = Ratio of unbound AUC in brain to plasma in C57BL/6j mouse at 10 mg/kg, sc after 0.5 hrs; type: ADME, organism-based; details: read-out: Ratio AUC
Plasma [21] = test: Fraction unbound in Wistar Hann rat plasma at 5 mg/kg, sc after 1 hr; type: ADME, organism-based; details: in vivo
[22] = Drug concentration in Wistar Hann rat plasma at 5 mg/kg, sc after 6 hrs; type: ADME, organism-based
[23] = Drug concentration in Wistar Hann rat plasma at 5 mg/kg, sc after 1 hr; type: ADME, organism-based
[24] = AUC (0 to tlast) in Wistar Hann rat plasma at 5 mg/kg, sc; type: ADME, organism-based
[25] = Ratio drug level in brain to plasma in C57BL/6j mouse at […], sc after 1 hr; type: ADME, organism-based; details: read-out: BPR
[26] = Ratio of unbound AUC in brain to plasma in C57BL/6j mouse at 10 mg/kg, sc after 1 hr; type: ADME, organism-based; details: read-out: Ratio AUC
[27] = Drug concentration in Wistar Hann rat brain at 5 mg/kg, sc after 4 hrs; type: ADME, organism-based; details: read-out: Drug uptake
[28] = Drug concentration in Wistar Hann rat brain at 5 mg/kg, sc after 1 hr; type: ADME, organism-based; details: read-out: Drug uptake
Plasma [29] = test: Fraction unbound in C57BL/6j mouse plasma at 10 mg/kg, sc after 0.5 hrs; type: ADME, organism-based; details: in vivo
[30] = Ratio of unbound AUC in brain to plasma in C57BL/6j mouse at 10 mg/kg, sc after 4 hrs; type: ADME, organism-based; details: read-out: Ratio AUC
[31] = Volume of distribution at steady state in Wistar Hann rat at 0.5 mg/kg, iv; type: ADME, organism-based; details: in vivo, read-out: Vdss
[32] = Cmax in Wistar Hann rat plasma at 5 mg/kg, sc; type: ADME, organism-based; parameters: dose 5 mg/kg, route subcutaneous
[33] = Ratio of drug level in brain to plasma in Wistar Hann rat at 5 mg/kg, sc after 1 hr; type: ADME, organism-based
[34] = AUC (0 to tlast) in Wistar Hann rat brain at 5 mg/kg, sc; type: ADME, organism-based
Plasma [35] = test: Fraction unbound in Wistar Hann rat plasma at 5 mg/kg, sc after 2 hrs; type: ADME, organism-based; details: in vivo
[36] = Ratio drug level in brain to plasma in C57BL/6j mouse at 10 mg/kg, sc after 4 hrs; type: ADME, organism-based; details: read-out: BPR

Cn1ccc(-c2ccc(Cn3cc(C(=O)N[C@H]4CCOC[C@@H]4O)c4ncccc43)cc2)n1
Tmax [1]: 2 h
Tmax [2]: 1 h
Tmax [3]: 2 h
Cp(f) (Plasma [4]): 293 nM
Cp(f) (Plasma [5]): 0.092 nM
Kp at 4 h [6]: 0.02
concentration at 4 h [7]: 3190 nM
Kp at 2 h [8]: 0.18
Cmax [9]: 62.2 ng/mL
Cp(f) (Plasma [10]): 302.2 nM
bioavailability [11]: 67.9%
bioavailability [12]: 69%
concentration at 2 h [13]: 944 nM
AUC(0-inf) [14]: 2680 ng·h/mL
Cmax [15]: 600 ng/mL
Kp uu [16]: 0.2
AUC(0-inf) [17]: 380 ng·h/mL
concentration at 2 h [18]: 5460 nM
Cp(f) (Plasma [19]): 218 nM
Kp uu at 0.5 h [20]: 0.34
Cp(f) (Plasma [21]): 463 nM
concentration at 6 h [22]: 2150 nM
concentration at 1 h [23]: 5030 nM
AUC(0-t) [24]: 9400 ng·h/mL
Kp at 1 h [25]: 0.04
Kp uu at 1 h [26]: 0.18
concentration at 4 h [27]: 681 nM
concentration at 1 h [28]: 1050 nM
Cp(f) (Plasma [29]): 295 nM
Kp uu at 4 h [30]: 0.24
Vd [31]: 1.49 L/kg
Cmax [32]: 2360 ng/mL
Kp at 1 h [33]: 0.21
AUC(0-t) [34]: 1830 ng·h/mL
Cp(f) (Plasma [35]): 502 nM
Kp at 4 h [36]: 0.1
